Values quoted from earlier work in patent US20110092535A1, “Novel Epilepsy Treatment” (priority 2006, published 2011).
Read-outs that look alike come from different tables or passages of the source.

Test system: maximal electric shock-induced seizures
Settings: rats

Compound: Cc1nccn1CC1CCc2c(c3ccccc3n2C)C1=O (centres unmarked) [Ondansetron]
- effect against maximal electric shock-induced seizures (higher doses (>2 mg/kg)): ineffective
- effect against maximal electric shock-induced seizures (low doses): effective
